Patent publication US20100056507A1, “PHENYL DERIVATIVES AND THEIR USE AS A MEDICAMENT” (IPSEN PHARMA S.A.S., priority 2006, published 2010)
Where two headings read alike, the source gives them in different places.

Target: T1, human CB2 receptors (Homo sapiens, UniProt P34972)
T1 construct: expressed in transfected cells; membranes used
Experiment: Affinity for the human CB2 cannabinoid receptors: inhibition of [3H]-CP55940 binding to transfected CHO-K1 cell membranes
Conditions: [3H]-CP55940 1 nM, CHO-K1 membranes expressing human CB2, Cheng-Prusoff correction
Protocol: The affinity of the compounds of the invention for the human CB2 receptors is determined by measuring the inhibition of the binding of [^3H]-CP55940 to transfected CHO-K1 cell membrane preparations.
The cells are collected with 0.5 mM of EDTA and centrifuged at 500 g for 5 minutes at 4° C. The pellet is re-suspended in phosphate buffered saline medium (PBS) and centrifuged at 500 g for 5 minutes at 4° C. The pellet is re-suspended in a Tris 50 mM buffer medium at pH 7.4 and centrifuged at 500 g for 5 minutes at 4° C. The cells are lysed by sonication and centrifuged at 39,000 g for 10 minutes at 4° C. The pellet is re-suspended in the Tris 50 mM buffer medium at pH 7.4 and centrifuged at 50,000 g for 10 minutes at 4° C. The membranes obtained in this last pellet are stored at −80° C.
Measurement of the competitive inhibition of the binding of the [^3H]-CP55940 to the CB2 receptors is carried out in duplicate using 96-well polypropylene plates. The cell membranes (10 μg of proteins/well) are incubated with the [^3H]-CP55940 (1 nM) for 60 minutes at 25° C. in a Tris-HCl 50 mM buffer medium, pH 7.4, comprising 0.1% bovine serum albumin (BSA), 5 mM of MgCl2, and 50 μg/ml of bacitracin.
The filters are washed with Tris-HCl 50 mM buffer, pH 7.4 at 0-4° C. and the radioactivity present is determined using a counter (Packard Top Count).
The specific binding is obtained by subtracting the non-specific binding (determined in the presence of 0.1 μM of WIN55212-2 from the total binding). The data are analyzed by computer-assisted non-linear regression (MDL). For each test, a Cheng-Prusoff correction is made in order to convert the IC50 to the inhibition constant, Ki.
where [L] is the concentration of the radioligand used in the test and Kd is the radioligand equilibrium disassociation constant.

T1 sequence (P34972 whole entry): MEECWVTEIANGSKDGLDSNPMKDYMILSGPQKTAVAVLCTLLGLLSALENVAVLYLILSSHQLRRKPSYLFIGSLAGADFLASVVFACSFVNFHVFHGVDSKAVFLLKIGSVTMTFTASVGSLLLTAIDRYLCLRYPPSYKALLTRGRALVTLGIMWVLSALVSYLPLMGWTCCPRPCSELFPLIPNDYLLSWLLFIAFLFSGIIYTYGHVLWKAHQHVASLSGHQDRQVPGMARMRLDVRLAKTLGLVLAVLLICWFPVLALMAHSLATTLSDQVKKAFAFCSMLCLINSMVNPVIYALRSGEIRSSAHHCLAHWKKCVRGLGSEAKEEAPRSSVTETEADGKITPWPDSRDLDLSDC

Row | Compound | Ki (read-out: Ki < 0.5 μM) | Ki (read-out: Ki < 5 μM)
1 | CC1(C)CCC(C)(C)c2cc(C(=O)OCCc3ccc(NC(=O)NC4CC4)cc3)ccc21 [Example 96] | < 0.5 µM | < 5 µM
2 | CCS(=O)(=O)Nc1ccc(CCOC(=O)c2ccc3c(c2)C(C)(C)CCC3(C)C)cc1 [Example 70] | < 0.5 µM | < 5 µM
3 | CC(C)(C)c1cc(-c2nnc(NCc3ccc(NC(=O)C4CCC4)cc3)o2)cc(C(C)(C)C)c1 [Example 23] |  | < 5 µM
4 | CC(C)(C)c1cc(-c2nc(Cc3ccc(NC(=O)C4CCC4)cc3)no2)cc(C(C)(C)C)c1 [Example 19] | < 0.5 µM | < 5 µM
5 | CC1(C)CCC(C)(C)c2cc(C(=O)OCCc3ccc(NC(=O)C4CC4(C)C)cc3)ccc21 (stereo not drawn) [Example 89] | < 0.5 µM | < 5 µM
6 | CC1(C)CCC(C)(C)c2cc(C(=O)OCCc3ccc(NC(=O)C4CCOC4)cc3)ccc21 (stereo not drawn) [Example 92] | < 0.5 µM | < 5 µM
7 | CCNC(=S)Nc1ccc(CCOC(=O)c2ccc3c(c2)C(C)(C)CCC3(C)C)cc1 [Example 76, 2-(4-{[(ethylamino)carbonothioyl]amino}phenyl)ethyl 5,5,8,8-tetramethyl-5,6,7,8-tetrahydronaphthalene-2-carboxylate] | < 0.5 µM | < 5 µM
8 | CC1(C)CCC(C)(C)c2cc(C(=O)OCc3ccc(C(=O)NC4CCC4)cc3)ccc21 [Example 3] | < 0.5 µM | < 5 µM
9 | CCCNC(=O)Nc1ccc(CCc2nc(-c3ccc4c(c3)C(C)(C)CCC4(C)C)co2)cc1 [Example 41] | < 0.5 µM | < 5 µM
10 | CC(C)C(=O)Nc1ccc(CCOC(=O)c2ccc3c(c2)C(C)(C)CCC3(C)C)cc1 [Example 56] | < 0.5 µM | < 5 µM
11 | C=CCNC(=O)Nc1ccc(CCOC(=O)c2ccc3c(c2)C(C)(C)CCC3(C)C)cc1 [Example 30] | < 0.5 µM | < 5 µM
12 | COCCNC(=S)Nc1ccc(CCOC(=O)c2ccc3c(c2)C(C)(C)CCC3(C)C)cc1 [Example 79] | < 0.5 µM | < 5 µM
13 | CCCNC(=O)Nc1ccc(CCc2nnc(-c3cc(C(C)(C)C)cc(C(C)(C)C)c3)o2)cc1 [Example 18] | < 0.5 µM | < 5 µM
14 | CC1(C)CCC(C)(C)c2cc(-c3coc(CCc4ccc(NC(=O)C5CCC5)cc4)n3)ccc21 [Example 39, N-(4-{2-[4-(5,5,8,8-tetramethyl-5,6,7,8-tetrahydronaphthalen-2-yl)-1,3-oxazol-2-yl]ethyl}phenyl)cyclobutanecarboxamide] | < 0.5 µM | < 5 µM
15 | CC1(C)CCC(C)(C)c2cc(C(=O)OCCc3ccc(NC(=O)CC4CC4)cc3)ccc21 [Example 91] | < 0.5 µM | < 5 µM
16 | O=C(OCCc1ccc(NC(=O)C2CCC2)cc1)c1ccc2c(c1)CCCC2 [Example 15] | < 0.5 µM | < 5 µM
17 | CC1(C)CCC(C)(C)c2cc(C(=O)OCCc3ccc(NC(=O)C4CCC4)cc3)ccc21 [Example 1, 2-{4-[(cyclobutylcarbonyl)amino]phenyl}ethyl 5,5,8,8-tetramethyl-5,6,7,8-tetrahydronaphthalene-2-carboxylate] | < 0.5 µM | < 5 µM
18 | CCCNC(=O)Nc1ccc(CCc2nnc(-c3cc(C(C)(C)C)cc(C(C)(C)C)c3)s2)cc1 [Example 48, N-(4-{2-[5-(3,5-di-tert-butylphenyl)-1,3,4-thiadiazol-2-yl]ethyl}phenyl)-N′-propylurea] | < 0.5 µM | < 5 µM
19 | CCCNC(=S)Nc1ccc(CCOC(=O)c2ccc3c(c2)C(C)(C)CCC3(C)C)cc1 [Example 77] | < 0.5 µM | < 5 µM
20 | CC1(C)CCC(C)(C)c2cc(C(=O)OCCc3ccc(NC(=S)NCc4ccco4)cc3)ccc21 [Example 80] | < 0.5 µM | < 5 µM

Row | Compound | Ki (read-out: Ki < 0.5 μM) | Ki (read-out: Ki < 5 μM)
21 | O=C(OCCc1ccc(NC(=O)C2CCC2)cc1)c1ccc2c(c1)OCO2 [Example 34] |  | < 5 µM
22 | CC1(C)CCC(C)(C)c2cc(C(=O)OCCc3ccc(NC(=O)C4CCCC4)cc3)ccc21 [Example 64] | < 0.5 µM | < 5 µM
23 | C=CC(=O)Nc1ccc(CCOC(=O)c2ccc3c(c2)C(C)(C)CCC3(C)C)cc1 [Example 61] | < 0.5 µM | < 5 µM
24 | CCC(C)NC(=O)Nc1ccc(CCOC(=O)c2ccc3c(c2)C(C)(C)CCC3(C)C)cc1 (stereo not drawn) [Example 82] | < 0.5 µM | < 5 µM
25 | CC1(C)CCC(C)(C)c2cc(C(=O)OCCc3ccc(NC(=O)NCc4ccco4)cc3)ccc21 [Example 75] | < 0.5 µM | < 5 µM
26 | CC1(C(=O)Nc2ccc(CCOC(=O)c3ccc4c(c3)C(C)(C)CCC4(C)C)cc2)CC1 [Example 87] | < 0.5 µM | < 5 µM
27 | CCCCNC(=O)Nc1ccc(CCOC(=O)c2ccc3c(c2)C(C)(C)CCC3(C)C)cc1 [Example 83] | < 0.5 µM | < 5 µM
28 | CC1(C)CCC(C)(C)c2cc(-c3nnc(NCc4ccc(NC(=O)C5CCC5)cc4)o3)ccc21 [Example 25] | < 0.5 µM | < 5 µM
29 | CC1(C)CCC(C)(C)c2cc(C(=O)OCCc3ccc(NC(=O)C4CC45CCC5)cc3)ccc21 (stereo not drawn) [Example 90] | < 0.5 µM | < 5 µM
30 | CC1(C)CCC(C)(C)c2cc(C(=O)OCCc3ccc(NC(=O)Cc4ccco4)cc3)ccc21 [Example 93] | < 0.5 µM | < 5 µM
31 | CCCNC(=O)Nc1ccc(Cc2nnc(-c3cc(C(C)(C)C)cc(C(C)(C)C)c3)o2)cc1 [Example 14] | < 0.5 µM | < 5 µM
32 | CC(C)(C)c1cc(-c2nnc(Cc3ccc(/N=C(/N)c4cccs4)cc3)o2)cc(C(C)(C)C)c1 [Example 2] | < 0.5 µM | < 5 µM
33 | CC(C)(C)c1cc(-c2nc(Cc3ccc(/N=C(/N)c4cccs4)cc3)no2)cc(C(C)(C)C)c1 [Example 5] | < 0.5 µM | < 5 µM
34 | C=CCNC(=O)Nc1ccc(CCc2nnc(-c3cc(C(C)(C)C)cc(C(C)(C)C)c3)s2)cc1 [Example 47] | < 0.5 µM | < 5 µM
35 | CC1(C)CC(C)(C)c2cc(C(=O)OCCc3ccc(NC(=O)C4CCC4)cc3)ccc21 [Example 37] | < 0.5 µM | < 5 µM
36 | C=CCNC(=S)Nc1ccc(CCOC(=O)c2ccc3c(c2)C(C)(C)CCC3(C)C)cc1 [Example 78] | < 0.5 µM | < 5 µM
37 | Cc1cc2c(cc1C(=O)OCCc1ccc(NC(=O)C3CCC3)cc1)CCCC2(C)C [Example 36] | < 0.5 µM | < 5 µM
38 | O=C(OCCc1ccc(NC(=O)C2CCC2)cc1)c1ccc2c(c1)CCC2 [Example 11] | < 0.5 µM | < 5 µM
39 | Cc1cc2c(cc1C(=O)OCCc1ccc(NC(=O)C3CCC3)cc1)C(C)(C)CCC2 [Example 35] | < 0.5 µM | < 5 µM
40 | C=CCNC(=O)Nc1ccc(CCc2nc(-c3ccc4c(c3)C(C)(C)CCC4(C)C)co2)cc1 [Example 40] | < 0.5 µM | < 5 µM
